Test results reported in patent US11129867B2, “Method of treating cancer cells” (priority 2017, dated 2021).
Read-outs that look alike come from different tables or passages of the source. Where no end group is shown, it is not given here.

Experiments:
Ca922 cells [1] = assay: WST-8 cell viability assay, Ca922; type: cell-based, human
Protocol: (§1) Human oral squamous cell carcinoma (OSCC) cell lines, Ca922, OSC20, OECM-1, OC3, CGHNC9, HSC3, plus A549, MDA-MB-231, MCF7, Huh7, HeLa-Kyoto, Detroit 562, H520, H2170, and 293T cells were used in this study. Ca922, CGHNC9, MDA-MB-231, MCF7, Huh7, HeLa-Kyoto, Detroit 562, and 293T cells were all cultured in high-glucose Dulbecco's Modified Eagle Medium (DMEM). OSC20 and HSC3 cells were cultured in Dulbecco's Modified of Eagle's Medium/Ham's F-12 50/50 Mix (1:1). OECM-1, A549, H520, and H2170 cells were grown in RPMI-1640 medium. All culture media were supplemented with 10% fetal bovine serum (FBS) and 1% penicillin-streptomycin. OC3 cells were cultured in 1:1 DMEM/KSFM (keratinocyte serum-free medium) with supplied supplement of Bovine pituitary extract (BPE) and epidermal growth factor (EGF) followed by instruction. All the cells in this study were maintained at 37° C. in humidified atmosphere containing 5% CO2.
(§2) WST-8 [2-(2-methoxy-4-nitrophenyl)-3-(4-nitrophenyl)-5-(2,4-disulfophenyl)-2H-tetrazolium, monosodium salt] cell viability assay
(§3) Cells were seeded into 96 well plate and incubated at 37° C. overnight. Endpoint measures of TMR-GBP or drugs were performed by water soluble tetrazolium salt (WST-8)-based colorimetric assay in triplicate which measures the metabolic conversion of WST-8 into formazan by mitochondrial dehydrogenases present in viable cells. The amount of formazan produced is proportional to the number of live cells and is expressed as cellular viability. When time was up, media were removed and supplemented with WST-8 cell viability reagent-contained cell culture medium (1:10) and incubated at 37° C. for 2 hours. Besides, three wells with WST-8-dissolved medium only (without cells) were reserved as a background control. Cell viability was measured at the absorbance of 450/655 nm wavelength by ELISA reader.

phospho-γH2Ax = assay: Immunofluorescence staining of phospho-γH2Ax (DNA damage); type: cell-based, human; details: Ca922, H2O2 positive control, FIG. 10A
Protocol: Representative images showing DAPI-labelled nucleus (shown in blue) co-stained with phospho-γH2Ax (green). Ca922 cells were treated with 25 μM TMR-GBP for 12 or 24 hours followed by immunofluorescence staining. Foci in the nucleus indicated damaged DNA. Scale bar indicates 10 μm.
At least 20 cells were counted in each category. Bars indicate standard deviations from three independent experiments.
Immunofluorescence Staining
Cells grown on coverslips were washed with 1×PBS and fixed by PTEMF buffer (20 mM PIPES pH 6.8, 0.2% Triton X-100, 10 mM EGTA, 1 mM MgCl2, and 4% formaldehyde) or 4% paraformaldehyde for 10 minutes at room temperature. Then, fixation buffer was replaced with 1×PBST and the cells were washed with 1×PBST for another 10 minutes at room temperature. Coverslips were washed with 1×PBST twice gently and incubated with primary antibodies at room temperature for 1 hour. Next, washed with PBST for three times (2, 2, 5 minutes). Afterwards, coverslips were cultured in Alex Fluor-conjugated secondary antibodies and DAPI at room temperature for 30 minutes, washed three times (2, 2, 5 minutes), rinsed with ddH2O and mounted with mounting medium. Antibodies concentration used in this analysis is 1:1000 dilution. Images were acquired with specific fluorescence wavelength by Leica DMI6000 inverted microscope equipped with HCX PL FL 100λ/NA1.40 objective and EMCCD camera. All images were analyzed by MetaMorph software.

Ca922 cells [2] = assay: Annexin V staining with flow cytometry; type: cell-based, human; details: Ca922, 1% H2O2 positive control, FIG. 6A
Protocol: […] Diluted 10× Binding Buffer to 1× using distilled water. Washed cells once in PBS, then once in 1× Binding Buffer. Resuspended cells in 1× Binding Buffer at 1-5×10^6/mL. Next, added 5 μL of fluorochrome-conjugated Annexin V to 100 μL of the cell suspension. Sample was incubated 10-15 minutes at room temperature. Afterwards, washed cells in 1× Binding Buffer and resuspend in 200 μL of 1× Binding Buffer. Analyzed by flow cytometry within 4 hours, storing at 2-8° C. in the dark.

H520 = assay: WST-8 cell viability assay, H520; type: cell-based
Protocol: as §1, §2, §3

H2170 = assay: WST-8 cell viability assay, H2170; type: cell-based
Protocol: as §1, §2, §3

Detroit 562 = assay: WST-8 cell viability assay, Detroit 562; type: cell-based
Protocol: as §1, §2, §3

Ca922 cells [3] = assay: Time-lapse live cell imaging, Ca922; type: cell-based; details: Ca922, 12.5 μM, exposed to 532 nm, 488 nm, 405 nm and brightfield, after 20 hours, FIG. 2
Protocol: Ca922 cells were grown on 35 mm culture dishes overnight then treated with 1% DMSO, 12.5 μM TMR, GBP, TMR-GBP respectively and monitored by time-lapse live cell microscope. Cells were exposed to indicate wavelength once every 4 hours for 100 ms and continuously for 20 hours. At least 300 cells in five different fields were counted for each experiment using microcopy that captured images under 10× magnification. Mortality rate was evaluated by counting the percentage of dead cells in the whole population. Standard deviations of three independent experiments were indicated as bars.
Time-Lapse Live Cell Imaging
In order to monitor cell morphology and the stability of TMR-GBP, cells were incubated in 35 mm dish or 4 well dish at 37° C. overnight. Replaced the culture medium with CO2-independent medium with supplement of 10% fetal bovine serum (FBS) and 1% penicillin-streptomycin, cells were treated with reagent (TMR, GBP, TMR-GBP) for the time according to the experiment and subjected to time-lapse live cell imaging. Cells were maintained on the microscope stage incubator at 37° C. Multiple-positional time-lapse imaging was performed using an automated Leica DMI6000 inverted microscope equipped with an HCX PL FL 20λ/NA0.4 objective and Andor Luca R EMCCD camera. Images of cells were taken at different interval time and analyzed by MetaMorph software.

## O=C(O)CN(CCOCCOCCN(CC(=O)O)CC(=O)O)CC(=O)O [EGTA, ethylene glycol tetraacetic acid, reference compound]
Ca922 cells [1]; Ca922, 1 mM EGTA, 50 hours, FIG. 8A
  effect on cell viability: no significant effect on cell viability

## OO [H2O2, reference compound]
phospho-γH2Ax
  phospho-γH2Ax foci in the nucleus (DNA damage): many foci were observed accumulating in the nucleus
Ca922 cells [2]
  apoptosis by Annexin-V-FITC labeling: induces apoptosis in Ca922

## CN(C)c1ccc2c(-c3ccccc3C(=O)[O-])c3ccc(N(C)C)cc3[o+]c2c1 [TMR, Tetramethylrhodamine, reference compound]
Ca922 cells [1]; Ca922 (oral cancer), different concentrations, 48 hours, FIG. 5
  cytotoxicity (cell viability): neither TMR-GBPR3QW4R nor TMR alone induce cytotoxicity
H520; H520 (lung cancer), different concentrations, 48 hours, FIG. 5
  cytotoxicity (cell viability): neither TMR-GBPR3QW4R nor TMR alone induce cytotoxicity
H2170; H2170 (lung cancer), different concentrations, 48 hours, FIG. 5
  cytotoxicity (cell viability): neither TMR-GBPR3QW4R nor TMR alone induce cytotoxicity
Detroit 562; Detroit 562 (pharynx cancer), different concentrations, 48 hours, FIG. 5
  cytotoxicity (cell viability): neither TMR-GBPR3QW4R nor TMR alone induce cytotoxicity
Ca922 cells [3]
  cytotoxicity under light stress (mortality): more sensitive to 532 nm light stress and displayed cytotoxic effects

## TMR-GBPR3QW4R: TMR conjugate of peptide GBPR3QW4R, NYQRRCKNQN (SEQ ID NO. 4) (not fully specified (N-terminus); also: TMR conjugate, site not given here; listed as Homo sapiens)
Ca922 cells [1]
  cytotoxicity (cell viability): neither TMR-GBPR3QW4R nor TMR alone induce cytotoxicity
H520
  cytotoxicity (cell viability): neither TMR-GBPR3QW4R nor TMR alone induce cytotoxicity
H2170
  cytotoxicity (cell viability): neither TMR-GBPR3QW4R nor TMR alone induce cytotoxicity
Detroit 562
  cytotoxicity (cell viability): neither TMR-GBPR3QW4R nor TMR alone induce cytotoxicity

## TMR-GBPW4R: TMR conjugate of peptide GBPW4R, NYRRRCKNQN (SEQ ID NO. 3) (not fully specified (N-terminus); also: TMR conjugate, site not given here; listed as Homo sapiens)
H520
  cytotoxicity (cell viability): could induce cytotoxicity
H2170
  cytotoxicity (cell viability): could induce cytotoxicity
Detroit 562
  cytotoxicity (cell viability): could induce cytotoxicity
